In patent publication US20250228801A1, “USE OF Galectin-1 INHIBITOR IN PREPARATION OF DRUG FOR TREATING PULMONARY FIBROSIS” (Institute of Basic Medical Sciences, CAMS, priority 2024, published 2025):

How the values were obtained:
Galectin-1 = Galectin-1 levels in silicosis mice (qPCR of lung tissue, ELISA of BALF); type: in vivo, mouse
Excerpt: (§1) Male C57BL/6J mice (aged 8 weeks and weighing 25-30 g) were selected and housed in an SPF grade laboratory animal room, and the model of silicosis was constructed by one-time intratracheal instillation of silica (Si); the mice were divided into four groups (n=9): • 1) PBS+vehicle group: tracheal infusion of PBS, intraperitoneal injection of vehicle (10% DMSO+90% corn oil) 2 weeks later, once every other day for 3 weeks; • 2) PBS+OTX008 group: PBS was given by tracheal infusion, and 2 weeks later, OTX008 (5 mg/kg) was given by intraperitoneal injection, once every other day for 3 weeks; • 3) Si+vehicle group: Silica suspension (300 mg/mL, 40 μL) was given tracheal infusion, and vehicle (10% DMSO+90% corn oil) was given intraperitoneal injection 2 weeks later, once every other day for 3 weeks; and • 4) Si+OTX008 group: Silica suspension (300 mg/mL, 40 μL) was given tracheal infusion, and OTX008 (5 mg/kg) was given intraperitoneal injection 2 weeks later, once every other day for 3 weeks.
(§2) All mice were sacrificed after the administration, and the corresponding samples were collected for detection.
(§3) Concentrations of inflammatory factors IL-1β and IL-6 as well as Galectin-1 in mouse BALF were detected by using ELISA kits.
(§4) Lung tissue RNA of all mice was extracted; cDNA was obtained by using a reverse transcription kit (KR103, Tiangen Biotechnology, Beijing, China); qPCR was conducted by using a SYBR Green I Q-PCR Kit (TransGen Biotech, Beijing China); data collection and analysis were conducted by Bio-Rad IQ5 system.

silicosis mice [1] = test: Pulmonary function test in silicosis mouse model; type: in vivo; settings: OTX008 5 mg/kg i.p.
Excerpt: as §1
Anesthetized mice were fixed on an experimental table, and mouse lung function was detected by a pulmonary function testing system (DSI Buxco, USA). Before experiment, the mouse was anesthetized by intraperitoneal injection of 0.4 mL/100 g 2% pentobarbital, tracheotomy was performed, a trachea cannula was inserted, and a ventilator was connected. Next, FRC, PV, FV, and RC were automatically tested by a PET system. Indicators closely related to lung function changes in silicosis for statistical analysis, including lung volume indicators such as IC, and pulmonary ventilation function tests such as RI, Cdyn, and Cchord.

[2] = system: inflammatory factors IL-1β and IL-6; test: Inflammatory factors in silicosis mice (qPCR of lung tissue, ELISA of BALF); type: in vivo, mouse; settings: OTX008 5 mg/kg i.p.
Excerpt: as §1, §2, §3, §4

[3] = system: fibrosis factors Fn-1 and Col-I, hydroxyproline; test: Fibrosis factors (qPCR) and HYP content in lung tissue of silicosis mice; type: in vivo, mouse; settings: OTX008 5 mg/kg i.p.
Excerpt: as §1, §2, §4
30 mg of mouse lung tissue was detected using an HYP kit (NBP2-59747, Novus Biologicals, Littleton, CO, USA).

silicosis mice [4] = test: Pathological staining (HE, Masson) of lung tissue of silicosis mice; type: in vivo, mouse; settings: OTX008 5 mg/kg i.p.
Excerpt: as §1
The left lung was fixed in 4% paraformaldehyde for 72 h, dehydrated, paraffin-embedded, sectioned (to 5 μm), and subjected to HE staining and Masson staining, respectively. The HE staining was conducted to calculate the inflammation score based on Szapiel's score. The scoring method included no inflammation (grade 0), mild (grade 1), moderate (grade 2), and severe (grade 3); Masson staining was conducted to evaluate the degree of fibrosis based on the King score. Specifically, different silicosis nodules were evaluated for fibrosis degree according to King's method, with levels ranging from 0 to 5. Each silicosis nodule was assigned a corresponding fibrosis damage score, which was calculated as the fibrosis level score (0-5) multiplied by its percentage of the total area of the tissue section. The sections were scanned, photographed and counted by a 3D HISTECH digital slide scanner.

## CN(C)CCNC(=O)COc1c2cccc1Cc1cccc(c1OCC(=O)NCCN(C)C)Cc1cccc(c1OCC(=O)NCCN(C)C)Cc1cccc(c1OCC(=O)NCCN(C)C)C2 [OTX008]
Galectin-1; OTX008 5 mg/kg i.p., ELISA
  Galectin-1 translation level in alveolar lavage fluid: decreased
Galectin-1; OTX008 5 mg/kg i.p., qPCR
  Lgals1 transcription level in lung tissue: decreased
Galectin-1; OTX008 5 mg/kg intraperitoneal, once every other day for 3 weeks
  levels of Galectin-1 (transcription and translation): effectively inhibited
Silicosis mice [1]; FIG. 3A
  lung function: inspiratory capacity (IC): improved significantly
Silicosis mice [1]; FIG. 3B
  lung function: inspiratory resistance (RI): improved significantly
Silicosis mice [1]; FIG. 3C
  lung function: dynamic compliance (Cdyn): improved significantly
Silicosis mice [1]; FIG. 3D
  lung function: quasi-static compliance (Cchord): improved significantly
[2]; ELISA, FIG. 4C
  concentration of IL-1β in alveolar lavage fluid: decreased
[2]; ELISA, FIG. 4D
  concentration of IL-6 in alveolar lavage fluid: decreased
[2]; qPCR, FIG. 4A
  transcription level of Il-1β in lung tissue: decreased
[2]; qPCR, FIG. 4B
  transcription level of Il-6 in lung tissue: decreased
[3]; HYP kit, FIG. 6C
  collagen-specific amino acid HYP in lung tissue: decreased
[3]; qPCR, FIG. 6A
  transcription level of Col-I in lung tissue: decreased
[3]; qPCR, FIG. 6B
  transcription level of Fn-1 in lung tissue: decreased
Silicosis mice [4]
  progression of pulmonary fibrosis: effectively alleviate
Silicosis mice [4]; FIGS. 7A-7D
  fibrosis lesions (Masson staining): reduced
Silicosis mice [4]; HE staining
  inflammatory infiltration in the lungs: reduced
Silicosis mice [4]; Masson staining
  degree of the disease (lesions): alleviated
